No end group written: not given here.

For one data set, the system named is K. pneumoniae. Nature of the data set: microbe, parasite or virus in culture. The class given is cell-based, Klebsiella pneumoniae. As to the method:
To assess the combined effect of peptides and antibiotics, a checkerboard test was performed. An inoculum of K. pneumoniae at 2 × 10^5 CFU/mL was used for the assay. Serial dilutions of peptides and meropenem were executed, and 10 μL of peptide and antibiotic were added into the 96-well plate, individually and/or in combination. The plate was incubated for 24 h to 37°C and the combinatorial effect was calculated as an index of fractional inhibitory concentration (FICI) with the following formula ([Giugliano et al., 2023]).
FICI=MICmeropenem in combination/MICmeropenem+MICpeptide in combination/MICpeptide
• FICI ≤ 0.5, synergy. • 0.5 < FICI ≤ 1.0, partial synergy. • […], no interaction. • FICI > 4.0, antagonism.

The test system of a further data set is S. thyphimurium. Nature of the data set: Broth microdilution MIC/MBC. The class given is cell-based. To be noted: for MIC: broth microdilution, 1 × 10^5 CFU/mL, concentration inhibiting 95% bacterial growth, triplicate; for MBC: lowest concentration killing 99.9% of the bacterial load after 18 h at 37°C on MHA. Background: Broth dilution looks for growth in wells or tubes with falling amounts of substance.

In a further data set the test system is K. pneumoniae ATCC 10031. Nature of the data set: Broth microdilution MIC/MBC. The class given is cell-based, Klebsiella pneumoniae. To be noted: reference strain ATCC 10031; for MIC: broth microdilution, 1 × 10^5 CFU/mL, concentration inhibiting 95% bacterial growth, triplicate; for MBC: lowest concentration killing 99.9% of the bacterial load after 18 h at 37°C on MHA. As to the method: (§1) Antibacterial activity of peptides was conducted against a panel of bacterial strains both Gram-positive (Staphylococcus aureus ATCC 6538, Enterococcus faecalis ATCC 29212, Listeria monocytogenes MB 677), and Gram-negative (E. coli ATCC 11229, K. pneumoniae ATCC 10031, Pseudomonas aeruginosa O1, Burkordelia cepacea LGM16656). The analysis has been extended to clinical isolates of K. pneumoniae carbapenemases producers isolated and characterized at the Microbiology Laboratory of the University Hospital “Luigi Vanvitelli,” Naples, Italy, using a BD Phoenix M50 instrument (Becton, Dickinson and Company, Franklin Lakes, NJ, USA) and listed in Table 1. The test was carried out as reported elsewhere ([Folliero et al., 2022]). The final bacterial concentration inoculated in the 96-well plate was 1 × 10^5 CFU/mL. Vancomycin (5 μg/mL) and meropenem (10 μg/mL) (Burlington, MA, USA) were used as positive control (CTRL+) against Gram-positive and Gram-negative bacteria, respectively.
(§2) The concentration of peptides inhibiting 95% bacterial growth was recorded as MIC. After setting the MIC value, 50 μL were taken from the 2MIC, 1MIC, and ½ MIC and spotted on MHA. The plates were incubated for 18 h at 37°C. The number of colony-forming units was calculated, and MBC was recorded as the lowest concentration of peptide capable of killing 99.9% of the bacterial load after 18 h of incubation.

The test system of data set [1] is Burkordelia cepacea LGM16656 (B. cepacia). Briefly: Broth microdilution MIC/MBC. The class given is cell-based. The conditions noted are these: for MIC: broth microdilution, 1 × 10^5 CFU/mL, concentration inhibiting 95% bacterial growth, triplicate. As to the method: as §1, §2
The test system of another data set is E. coli ATCC 11229. Briefly: Broth microdilution MIC/MBC. The class given is cell-based. The conditions noted are these: for MIC: broth microdilution, 1 × 10^5 CFU/mL, concentration inhibiting 95% bacterial growth, triplicate; for MBC: lowest concentration killing 99.9% of the bacterial load after 18 h at 37°C on MHA. As to the method: as §1, §2
The test system of data set [2] is Enterococcus faecalis ATCC 29212. Briefly: Broth microdilution MIC/MBC. The class given is cell-based. To be noted: for MIC: broth microdilution, 1 × 10^5 CFU/mL, concentration inhibiting 95% bacterial growth, triplicate; for MBC: lowest concentration killing 99.9% of the bacterial load after 18 h at 37°C on MHA. As to the method: as §1, §2
For data set [3], the system named is Listeria monocytogenes MB 677. Briefly: Broth microdilution MIC/MBC. The class given is cell-based. The conditions noted are these: for MIC: broth microdilution, 1 × 10^5 CFU/mL, concentration inhibiting 95% bacterial growth, triplicate; for MBC: lowest concentration killing 99.9% of the bacterial load after 18 h at 37°C on MHA. As to the method: as §1, §2
Data set [4] has as its system Pseudomonas aeruginosa O1. Nature of the data set: Broth microdilution MIC/MBC. The class given is cell-based. The conditions noted are these: 1 × 10^5 CFU/mL, concentration inhibiting 95% bacterial growth, triplicate. As to the method: as §1, §2
For data set [5], the system named is Staphylococcus aureus ATCC 6538. Nature of the data set: Broth microdilution MIC/MBC. The class given is cell-based. To be noted: for MIC: broth microdilution, 1 × 10^5 CFU/mL, concentration inhibiting 95% bacterial growth, triplicate; for MBC: lowest concentration killing 99.9% of the bacterial load after 18 h at 37°C on MHA. As to the method:
as §1, §2

The test system of data set [6] is K. pneumoniae 1746 (VIM, class B). Nature of the data set: Broth microdilution MIC/MBC, clinical isolate. The class given is cell-based, Klebsiella pneumoniae. The conditions noted are these: clinical isolate 1746, VIM; for MIC: rectal swab, broth microdilution, 95% growth inhibition. As to the method:
as §1, §2

Data set [7] can be described thus: Stability of peptides in serum. The class given is in vitro ADME. To be noted: 2.0 mg/mL peptide, 37°C; for remaining at 16 h, 2 mg/mL: RP-HPLC peak area vs t0 (100%), mean of duplicates, read-out: Peptide remaining in solution after 16 h in serum. As to the method:
Peptide stability in serum was performed as previously reported ([Russo et al., 2021]). Briefly, peptides were diluted in serum to a final concentration of 2.0 mg/mL and incubated at 37°C. Aliquots of each peptide taken at different times up to 16 h were analyzed by RP-HPLC on an Aeris PEPTIDE XB-C18 column (2.1 × 100 mm, 3.6 μm). Peptide concentrations in solution were determined from RP-HPLC peak areas compared to peak areas obtained at t0 (set as 100%).

In data set [8] the test system is HaCaT cell line (human keratinocytes cells). Briefly: MTT cytotoxicity on HaCaT cells. The class given is cell-based. To be noted: 100 μM, 24 h. As to the method:
Peptides cytotoxicity was evaluated on the HaCaT cell line (human keratinocytes cells) obtained from the CLS–Cell Lines Service (Eppelheim, Germany). The cell monolayer was treated with different peptide concentrations from 3 to 100 μM for 24 h. Then, methylthiazolyldiphenyl-tetrazolium bromide (MTT) (Sigma-Aldrich, St. Louis, MO, USA) assay was performed as already reported ([Ambrosino et al., 2023]). Untreated cells represented positive control (CTRL+), while cells treated with 100% DMSO represented negative control (CTRL−). Absorbance was recorded at 570 nm, and cell viability was calculated with Equation 1:
(1) %ofcellviability=absorbanceoftreatedcells/absorbanceofuntreatedcellsx100

Data set [9] has as its system K. pneumoniae 1711 (KPC, class A). Nature of the data set: Broth microdilution MIC/MBC, clinical isolate. The class given is cell-based, Klebsiella pneumoniae. To be noted: clinical isolate 1711, KPC; for MIC: rectal swab, broth microdilution, 95% growth inhibition. As to the method:
as §1, §2

Data set [10] relates to K. pneumoniae 1745 (KPC, class A). Briefly: Broth microdilution MIC/MBC, clinical isolate. The conditions noted are these: clinical isolate 1745, KPC; for MIC: ulcer, broth microdilution, 95% growth inhibition; for MBC: killing 99.9% after 18 h. The class given is cell-based, Klebsiella pneumoniae. As to the method:
as §1, §2

Data set [11] relates to K. pneumoniae 311 (OXA-48, class D). Nature of the data set: Broth microdilution MIC/MBC, clinical isolate. The class given is cell-based, Klebsiella pneumoniae. As to the method: as §1, §2
Data set [12] has as its system several strains of K. pneumoniae KPC-producers. Nature of the data set: MIC/MBC summarised over the clinical isolates. The class given is cell-based, Klebsiella pneumoniae. To be noted: summary over strains 311, 1746, 1745, 1711. As to the method:
as §1, §2

In the case of `C[C@@H](O)[C@H]1C(=O)N2C(C(=O)O)=C(S[C@@H]3CN[C@H](C(=O)N(C)C)C3)[C@H](C)[C@H]12` [meropenem], the MIC with K. pneumoniae (Klebsiella pneumoniae, checkerboard, 2 × 10^5 CFU/mL, 24 h, 37°C, read-out: MIC of meropenem alone) was 5 µg/mL. In addition, the “MIC of meropenem in combination” value in the data set on K. pneumoniae (combined with 3 μM of pantinin 1, checkerboard, 24 h, 37°C) was found to be 0.62 µg/mL.
Turning to FLSTIWNGIKSLL-NH2 [Pantinin 3], the MIC against S. thyphimurium came out at 50 µM; against K. pneumoniae ATCC 10031, 25 µM; in [1] it was 50 µM; against E. coli ATCC 11229 it was 50 µM; in data set [2], 25 µM; in data set [3], 25 µM. Moreover, the MIC in [4] came to 50 µM; in data set [5], 12.5 µM; in data set [6], 50 µM. Also, the MBC in [2] turned out to be 25 µM. Further, the share remaining at 16 h, 2 mg/mL in data set [7] was roughly 80%. Further, in data set [8], the Cell viability is recorded as 10%.
As to GILGKLWEGFKSIV-NH2 [Pantinin 1], the MIC is 50 µM against S. thyphimurium; 6.25 µM against K. pneumoniae ATCC 10031; 25 µM in data set [1]; 12.5 µM in the data set with E. coli ATCC 11229; 12.5 µM in [2]; 6.25 µM in data set [3]. In addition, the MIC in [4] turned out to be 50 µM; in data set [5], 6.25 µM; in data set [9], 25 µM; in [10], 25 µM; in data set [6], 25 µM; in data set [11] (clinical isolate 311, OXA-48, rectal swab, broth microdilution, 95% growth inhibition) it was 25 µM. Besides, the MBC came to 50 µM in the data set on S. thyphimurium; 12.5 µM against K. pneumoniae ATCC 10031; 25 µM in data set [1] (lowest concentration killing 99.9% of the bacterial load after 18 h at 37°C on MHA); 25 µM in the data set on E. coli ATCC 11229; 25 µM in [2]; 12.5 µM in [3]. The MBC in data set [5] was 6.25 µM; in data set [9] (killing 99.9% after 18 h), 25 µM; in data set [10] it was 25 µM; in [11] (clinical isolate 311, OXA-48, killing 99.9% after 18 h) it was 25 µM. In addition, the “MIC against the tested clinical K. pneumoniae strains” value in data set [12] came to 25 µM. In [7] (up to 16 h, RP-HPLC peak area vs t0, duplicates), the “Stability in serum in the time interval analysed” value was “stable”. Besides, the Cell viability entry in data set [8] is “approximately 70%”. In addition, the FICI in the data set on K. pneumoniae (pantinin 1 (3 μM) with meropenem (0.62 μg/mL)) is 0.624.
Regarding IFGAIWKGISSLL-NH2 [Pantinin 2], the MIC in the data set on S. thyphimurium came to 50 µM; against K. pneumoniae ATCC 10031, 12.5 µM; in data set [1], 50 µM; against E. coli ATCC 11229, 25 µM; in data set [2], 12.5 µM; in data set [3], 6.25 µM. In addition, the MIC in data set [4] amounted to 50 µM; in [5], 12.5 µM; in [9], 50 µM; in [10] it was 50 µM; in [6] it was 25 µM. Moreover, the minimal bactericidal concentration (MBC) in the data set with S. thyphimurium was determined as 50 µM; against K. pneumoniae ATCC 10031 it was 12.5 µM; against E. coli ATCC 11229, 25 µM; in data set [2] it was 12.5 µM; in data set [3], 12.5 µM; in data set [5], 12.5 µM. Moreover, the MBC in data set [10] and in [6] (killing 99.9% after 18 h) was 50 µM in each case. Besides, in data set [7], the amount remaining at 16 h, 2 mg/mL was roughly 70%. In data set [8], this molecule had a Cell viability of 25%.

In general, MBC refers to the smallest concentration meeting the test's criterion for killing. Broadly, the fraction remaining is what is left of the initial amount, in per cent.

(Values after publication PMC12162962, “The inhibitory potential of three scorpion venom peptides against multidrug-resistant Klebsiella pnemoniae” (Frontiers in Microbiology, 2025).)
